Data set [1] relates to hyperthermia induced by intramuscular injection of pyrogenal. As to the kind of experiment: Antipyretic activity, pyrogenal hyperthermia (curative mode). The data set is classed as in vivo, rats. The following applies: 100 mg/kg p.o. 2 h after pyrogenal. The procedure: The antipyretic effect of test substances in therapeutic (curative) mode was investigated on 48 rats with body mass 182-205 g, with hyperthermia induction by injecting pyrogenal in dose 100 μg (Shwarz G Y, Syubaev R D, Vedomosti NCEG lekarstvennyh sredstv MZ RF 2000; 1:44-50 (Rus). Test substances were given p.o. 2 hours after injection of pyrogenal immediately after the recording of elevated body temperature. Rectal temperature was measured by electric thermometer TERMO before the i.m. injection of pyrogenal (baseline temperature), at the peak of hyperthermia (pyrogenal control) and 30 min. after treatment with test substance, i.e., 2½ hours after the injection of pyrogenal. Ambient temperature in laboratory was kept at 20-22° C.

Data set [2] shares this test system. Briefly: Preventive antipyretic activity, pyrogenal hyperthermia. The following applies: 100 mg/kg p.o. 1 h before pyrogenal. The data set is classed as in vivo, Wistar rats. On the procedure:
Experiments were conducted on 48 Wistar rats with body mass 165-182 g by intramuscular injection of pyrogenal (Gamalei State Research Institution, Moscow, Russia) in 100 μg dose (Shwarz G Y, Syubaev R D, Vedomosti NCEG lekarstvennyh sredstv MZ RF 2000; 1:44-50 (Rus). Test substances were given p.o. one hour before the pyrogenal injection. Rectal temperature was measured by electric thermometer TERMO before injection of pyrogenal (baseline) and for 3 hours after injection. The antipyretic activity was evaluated by the reduction of hyperthermic reaction 2 hours after injection of pyrogenal that correlated well with the published data (10) about the peak of reaction (Table 6). Ambient temperature was kept at 20-21° C.

The subject of a further data set is carrageneen paw oedema. Briefly: Carrageneen oedema, preventive mode. The data set is classed as in vivo, rats. The following applies: 100 mg/kg p.o., preventive 6 times; 4 h. The procedure:
The […] oedema was investigated by established method ([…], Patol Fiziol Eksp Ter, 2002(2):24-7 (Rus) on 42 rats with body mass of 178-220 g: […] The prevention index was calculated as indicated in previous section.

Data set [3] relates to serum lipid levels (C, HDL, LDL, TG). As to the kind of experiment: Acute hyperlipidemia model (Triton WR1339). It is filed as in vivo, Wistar rats. The following applies: 150 mg/kg p.o.; TR 250 mg/kg; serum 24 h. On the procedure:
Male Wistar rats with body mass of 250-270 g were used. Animals were held in groups of 6-8 in climatized rooms at 22±1° C., relative humidity 60±5%, and 12/12-hour light/dark cycle with free access to water and feed. […] The solution of test substances or water was introduced to control and TR group animals p.o. one hour before and 20 hours after the introduction of TR as described below.
Blood for biochemical analysis was collected on the next day (24 hours after the injection of TR) by heart punction under ether narcosis. Serum was separated by centrifugation and analyzed for total cholesterol, HDL, LDL and TG levels by commercial kits.

The test system of the next data set is CRP. Briefly: CRP levels in blood, carrageneen inflammation model. The data set is classed as in vivo, rats. The following applies: 100 mg/kg. On the procedure: To evaluate the intensity of the inflammation process the CRP levels were determined by standard method on analyzer ? INTEGRA 400+ ? at the end of experiment (5 hours after injection of carrageneen).

Data set [4] deals with response to thermal irritation (hot plate). As to the kind of experiment: Mouse hot plate test. The data set is classed as in vivo, mice. The following applies: 100 mg/kg p.o.
The test system of another data set is tail bleeding. Briefly: Tail bleeding time during thrombosis experiment. The data set is classed as in vivo, rats. The following applies: 25 mg/kg p.o., single dose. The procedure:
Additionally during the thrombosis experiment rat tail bleeding time was measured. The tail was transected 5 mm from the tip with scalpel and the tail was immediately immersed into 37° C. warm isotonic saline until termination of bleeding was noted. Termination of bleeding was defined as the time of complete stop of bleeding with no recurrence of bleeding within the next 30 s.

For data set [5], the system named is FeCl3 induced carotid artery thrombosis. As to the kind of experiment: FeCl3 induced carotid artery thrombosis, time till occlusion. The following applies: 25 mg/kg p.o. It is filed as in vivo, Wistar rats. The source says:
We chose an experimental thrombosis model based on rat arterial thrombosis induced by FeCl3 (Kurz K et al, Thromb Res 1990, 60:269-280. Wang X, Xu L, Thromb Res 2005,115:95-100). Tissue damage initiated by iron-mediated chemical oxidation predisposes the injured area to platelet adherence and aggregation followed by coagulation activation and fibrin deposition. Male Wistar rats with mass 350-420 g were used in experiments. Animals were kept in groups of 7-8 in adequate cages in climatized room at 22±1° C., relative humidity 60±5% and 12/12-hour light/darkness cycle with free access to feed and water. All experiments were carried out in accordance with the European Community Council's Directive of 24 Nov. 1986 (86/609/EEC) relative to experimental animal care. All efforts were made to minimize animal suffering and to reduce the number of animals used. Rats were randomly divided into various experimental groups, each consisting of not less than seven animals. The vehicle or test compound MD (25 mg/kg), NA (25 mg/kg), MASA (10 mg/kg), ASA (5 mg/kg) and combination MD+NA (25+25 mg/kg), MASA+NA (10+25 mg/kg) and ASA+NA (5+25 mg/kg) was administered by oral route 2 h before the initiation of thrombosis. Parallel experiments were conducted to compare the effects of a single dose of test substance (given 2 h before the initiation of thrombosis) and repeated doses (once daily for 3 days). […] Rats were anaesthetized with pentobarbital sodium (50 mg/kg, i.p. and 10 mg/kg/h) and were placed on a heat controlled operating table throughout the experiment to maintain a body temperature of 37° C. One of the carotid arteries was exposed by cervical incision, separated from the adherent tissue, vagus nerve, and a flow probe (electromagnetic blood flow meter MFV 1200, Nicon Kohden, Japan) was placed on the exposed segment of common carotid artery to record the blood flow. After a stabilization period of 15 min, thrombosis was induced by topically applying (in contact with the adventitial surface of vessel) two pieces (2×1 mm) of Whatman filter paper, soaked in 15% solution of FeCl3. Thrombosis time of carotid artery was recorded as time taken for the complete cessation of the blood flow and has been reported as time till occlusion (TTO).

Marks after values point to notes of the source that are not given here.

Regarding `C[N+](C)(C)NCCC(=O)[O-].O.O` [MD, 3-(Trimethylammonioamino)propanoate dihydrate], in data set [1], the “Rectal temperature at 30 minutes after treatment” value worked out at 37.10 ± 0.14 °C. Also, in data set [2], the “Rectal temperature 120 minutes after injection” value turned out to be 36.2 ± 0.16 °C. In addition, in the data set with carrageneen paw oedema, the “Reduction in % (oedema)” value was found to be 34% and the “Volume of paw after injection of carrageneen” value is 1.66 ± 0.10 mL. In data set [3], the C is 345.6 ± 34.1 mg/dL, the HDL turned out to be 63.8 ± 9.3 mg/dL, the LDL was 273.9 ± 31.6 mg/dL and the TG was determined as 1022 ± 80.7 mg/dL. For the same compound, the CRP in the data set on CRP (5 h after carrageneen) turned out to be 0.22 ± 0.014 mg/L. This compound also came in with a CRP increase % with CRP (carrageneen control = 100) of 83%. In data set [4], the “Latent period at 30 min after introduction of test substance” value was 9.5 ± 0.68***^&& s and the “Latent period at 60 min after introduction of test substance” value was found to be 8.3 ± 0.53 s. In the data set on tail bleeding, this compound gave a Tail bleeding time of 10.5 ± 1.01 min. Further, in the data set with tail bleeding (control = 100), the “Tail bleeding time, %” value was 118%. Besides, in data set [5] (single dose 2 h before), the Time till occlusion was 29.8 ± 2.29 min. Further, the “Time till occlusion, %” value in data set [5] (single dose, control = 100) was determined as 122%.

The values above are taken from patent US8889902B2, “Acetylsalicylic acid salts” (priority 2009, dated 2014).
